Source: PMC12394658, “Discovery of Zharp1-163 as a dual inhibitor of ferroptosis and necroptosis for the treatment of inflammatory disorders and kidney injury” (Cell Death Discovery, 2025)

Assays:
Assay in all cases: biochemical
Parameters in all cases: Kinase selectivity panel of 81 human kinases, ADP-Glo or HTRF, per cent inhibition at 1 uM
CDK2/CycE1 = CDK2/CycE1 (Homo sapiens, UniProt P24941)
Method: (§1) We next sought to determine the binding affinity of Zharp1-163 for RIPK1 or RIPK3 via a binding assay (Fig. 4A). […] Further, we evaluated the selectivity of Zharp1-163 against a panel of 81 kinases (at 1000 nM). […] To elucidate the binding interactions between Zharp1-163 and RIPK1 kinase, we conducted molecular docking studies using the RIPK1 crystal structure (PDB ID: 4NEU). The predicted binding conformations and interaction patterns between Zharp1-163 and the RIPK1 kinase domain are presented in Fig. 4D, E. Like the cocrystallized ligand in the 4NEU crystal complex, Zharp1-163 was predicted to act as a typical type II kinase inhibitor, interacting with the DLG (Asp156-Leu157-Gly158)-out conformation of RIPK1 (Fig. 4D, E). The 2-aminoimidazo [1,2-a] pyridine moiety of Zharp1-163 formed hydrogen bonds with Met95 in the hinge region. Furthermore, the carboxylate group of Zharp1-163 established hydrogen bonds with Asp156 in the DLG-out region. Additionally, the saturated ring of Zharp1-163 was deeply embedded within the hydrophobic allosteric pocket formed by the residues Met66, Met67, Leu70, Val76, Leu129, and Leu159, which is created by the DLG-out conformation in RIPK1 (Fig. 4D, E).  Fig. 4 Zharp1-163 is a selective inhibitor of RIPK1 kinase activity. A Binding affinity curve of Zharp1-163 with RIPK1 and RIPK3. B In an in vitro kinase activity assay, recombinant RIPK1 was incubated with Zharp1-163, after which RIPK1 kinase activity was determined by measuring ATP levels via a luciferase reporter assay system. […] Kinases are marked with dots, where the color of each kinase indicates the level of inhibition achieved by Zharp1-163. D Predicted binding conformation of Zharp1-163. E Schematic representation of the interaction patterns between Zharp1-163 and the key residues in the binding pocket of the RIPK1 kinase. […] NIH3T3-RIPK3 cells were pretreated with the indicated concentrations of Zharp1-163 for 2 h and then treated with AP20187 (100 nM) for 24 h. Cell viability was determined by measuring ATP levels. […] HeLa-MLKL (1–190) cells were pretreated with the indicated concentrations of Zharp1-163 for 2 h and subsequently treated with AP20187 (100 nM) for 24 h. Cell viability was determined by measuring ATP levels. H Viability of IFNβ-primed MEFs at 18 h after stimulation with poly(I:C) plus z-VAD and treatment with Zharp1-163 (10 μM). I Effects of different concentrations of Zharp1-163 on WT or RIPK1 KO HT-29 cells. Cell viability was determined by measuring ATP levels. The data are presented as the mean ± SD of triplicate samples.

CK1γ3 = biological target: T1, CK1γ3 (Homo sapiens, UniProt Q9Y6M4)
T1 construct: gene CSNK1G3
T1 sequence (Q9Y6M4 whole entry): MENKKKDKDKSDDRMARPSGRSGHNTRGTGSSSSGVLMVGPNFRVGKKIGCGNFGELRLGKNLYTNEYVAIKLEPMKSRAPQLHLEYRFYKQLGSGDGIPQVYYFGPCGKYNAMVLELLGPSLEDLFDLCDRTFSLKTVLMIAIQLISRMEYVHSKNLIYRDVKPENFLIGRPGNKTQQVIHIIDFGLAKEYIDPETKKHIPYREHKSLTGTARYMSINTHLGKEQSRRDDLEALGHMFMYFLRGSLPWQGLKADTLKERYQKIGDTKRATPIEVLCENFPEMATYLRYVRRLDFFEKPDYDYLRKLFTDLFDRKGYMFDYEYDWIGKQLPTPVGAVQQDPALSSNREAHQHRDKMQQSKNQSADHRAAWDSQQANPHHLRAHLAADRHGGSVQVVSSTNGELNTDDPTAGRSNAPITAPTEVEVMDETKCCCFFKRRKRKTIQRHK
Method: as §1

CK2α1/β = biological target: T2, CK2α1/β (Homo sapiens, UniProt P68400)
T2 construct: gene CSNK2A1
T2 sequence (P68400 whole entry): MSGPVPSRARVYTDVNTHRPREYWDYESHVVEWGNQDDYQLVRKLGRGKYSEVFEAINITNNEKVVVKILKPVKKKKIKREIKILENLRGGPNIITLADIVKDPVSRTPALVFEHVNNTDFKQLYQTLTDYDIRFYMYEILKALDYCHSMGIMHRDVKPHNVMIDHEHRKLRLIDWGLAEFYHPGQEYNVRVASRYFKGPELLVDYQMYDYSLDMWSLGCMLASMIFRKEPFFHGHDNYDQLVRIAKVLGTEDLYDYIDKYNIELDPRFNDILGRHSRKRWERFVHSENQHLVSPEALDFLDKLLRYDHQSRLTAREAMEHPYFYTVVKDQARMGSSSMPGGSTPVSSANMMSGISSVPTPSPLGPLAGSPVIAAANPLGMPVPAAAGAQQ
T2 sequence (P67870 whole entry partner): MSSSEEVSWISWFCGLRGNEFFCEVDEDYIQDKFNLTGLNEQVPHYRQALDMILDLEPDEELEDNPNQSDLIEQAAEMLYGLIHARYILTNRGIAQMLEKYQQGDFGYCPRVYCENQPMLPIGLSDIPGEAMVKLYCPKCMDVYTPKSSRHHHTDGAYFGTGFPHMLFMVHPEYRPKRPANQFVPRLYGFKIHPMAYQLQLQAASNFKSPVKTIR
Method: as §1

Erk2 = biological target: T3, Erk2 (Homo sapiens, UniProt P28482)
T3 construct: gene MAPK1
T3 sequence (P28482 whole entry): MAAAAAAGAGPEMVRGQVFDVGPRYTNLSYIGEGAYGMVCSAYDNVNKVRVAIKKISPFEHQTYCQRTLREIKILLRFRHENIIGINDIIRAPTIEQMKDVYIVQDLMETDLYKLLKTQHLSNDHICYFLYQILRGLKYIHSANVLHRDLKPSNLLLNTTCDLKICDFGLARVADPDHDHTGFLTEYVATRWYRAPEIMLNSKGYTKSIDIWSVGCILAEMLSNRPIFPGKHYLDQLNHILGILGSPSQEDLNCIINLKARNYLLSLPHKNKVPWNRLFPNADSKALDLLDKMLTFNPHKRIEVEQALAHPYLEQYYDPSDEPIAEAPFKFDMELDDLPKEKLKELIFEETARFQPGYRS
Method: as §1

GAK = GAK (Homo sapiens, UniProt O14976)
Method: as §1

HGK = biological target: T4, HGK (Homo sapiens, UniProt O95819)
T4 construct: gene MAP4K4
Method: as §1

JAK3 = JAK3 (Homo sapiens, UniProt P52333)
Sequence of JAK3 (P52333 whole entry): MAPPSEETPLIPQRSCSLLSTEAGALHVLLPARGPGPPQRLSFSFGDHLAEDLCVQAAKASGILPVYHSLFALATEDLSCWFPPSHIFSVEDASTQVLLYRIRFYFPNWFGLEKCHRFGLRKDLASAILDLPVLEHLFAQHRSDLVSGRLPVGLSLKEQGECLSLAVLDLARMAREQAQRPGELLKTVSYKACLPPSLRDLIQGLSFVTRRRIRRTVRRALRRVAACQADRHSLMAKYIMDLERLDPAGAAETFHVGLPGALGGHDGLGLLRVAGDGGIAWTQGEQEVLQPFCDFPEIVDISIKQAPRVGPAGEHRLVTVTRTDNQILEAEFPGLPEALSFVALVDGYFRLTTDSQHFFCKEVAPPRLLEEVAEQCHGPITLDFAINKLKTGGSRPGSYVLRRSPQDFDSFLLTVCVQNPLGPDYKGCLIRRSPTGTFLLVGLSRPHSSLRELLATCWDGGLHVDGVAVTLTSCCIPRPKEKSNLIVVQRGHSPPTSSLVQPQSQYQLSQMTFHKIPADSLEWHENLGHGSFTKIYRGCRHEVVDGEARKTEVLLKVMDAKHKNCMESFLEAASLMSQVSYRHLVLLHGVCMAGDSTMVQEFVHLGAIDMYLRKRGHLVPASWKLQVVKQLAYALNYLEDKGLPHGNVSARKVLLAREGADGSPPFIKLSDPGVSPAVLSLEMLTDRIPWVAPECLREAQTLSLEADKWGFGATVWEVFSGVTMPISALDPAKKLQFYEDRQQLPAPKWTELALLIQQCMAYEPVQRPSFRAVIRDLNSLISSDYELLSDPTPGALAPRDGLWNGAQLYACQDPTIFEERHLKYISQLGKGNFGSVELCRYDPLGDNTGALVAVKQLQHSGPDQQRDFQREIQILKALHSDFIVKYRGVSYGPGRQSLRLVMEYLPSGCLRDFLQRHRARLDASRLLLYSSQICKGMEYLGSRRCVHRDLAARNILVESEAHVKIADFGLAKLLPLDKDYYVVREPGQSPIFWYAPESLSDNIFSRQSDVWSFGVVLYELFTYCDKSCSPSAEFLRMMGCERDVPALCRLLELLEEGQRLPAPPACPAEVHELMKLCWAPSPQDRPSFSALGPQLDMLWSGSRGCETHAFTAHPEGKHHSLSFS
Method: as §1

LCK = LCK (Homo sapiens, UniProt P06239)
Method: as §1

MARK4 = MARK4 (Homo sapiens, UniProt Q96L34)
Method: as §1

PDGFRα = biological target: T5, PDGFRα (Homo sapiens, UniProt P16234)
T5 construct: gene PDGFRA
T5 sequence (P16234 whole entry): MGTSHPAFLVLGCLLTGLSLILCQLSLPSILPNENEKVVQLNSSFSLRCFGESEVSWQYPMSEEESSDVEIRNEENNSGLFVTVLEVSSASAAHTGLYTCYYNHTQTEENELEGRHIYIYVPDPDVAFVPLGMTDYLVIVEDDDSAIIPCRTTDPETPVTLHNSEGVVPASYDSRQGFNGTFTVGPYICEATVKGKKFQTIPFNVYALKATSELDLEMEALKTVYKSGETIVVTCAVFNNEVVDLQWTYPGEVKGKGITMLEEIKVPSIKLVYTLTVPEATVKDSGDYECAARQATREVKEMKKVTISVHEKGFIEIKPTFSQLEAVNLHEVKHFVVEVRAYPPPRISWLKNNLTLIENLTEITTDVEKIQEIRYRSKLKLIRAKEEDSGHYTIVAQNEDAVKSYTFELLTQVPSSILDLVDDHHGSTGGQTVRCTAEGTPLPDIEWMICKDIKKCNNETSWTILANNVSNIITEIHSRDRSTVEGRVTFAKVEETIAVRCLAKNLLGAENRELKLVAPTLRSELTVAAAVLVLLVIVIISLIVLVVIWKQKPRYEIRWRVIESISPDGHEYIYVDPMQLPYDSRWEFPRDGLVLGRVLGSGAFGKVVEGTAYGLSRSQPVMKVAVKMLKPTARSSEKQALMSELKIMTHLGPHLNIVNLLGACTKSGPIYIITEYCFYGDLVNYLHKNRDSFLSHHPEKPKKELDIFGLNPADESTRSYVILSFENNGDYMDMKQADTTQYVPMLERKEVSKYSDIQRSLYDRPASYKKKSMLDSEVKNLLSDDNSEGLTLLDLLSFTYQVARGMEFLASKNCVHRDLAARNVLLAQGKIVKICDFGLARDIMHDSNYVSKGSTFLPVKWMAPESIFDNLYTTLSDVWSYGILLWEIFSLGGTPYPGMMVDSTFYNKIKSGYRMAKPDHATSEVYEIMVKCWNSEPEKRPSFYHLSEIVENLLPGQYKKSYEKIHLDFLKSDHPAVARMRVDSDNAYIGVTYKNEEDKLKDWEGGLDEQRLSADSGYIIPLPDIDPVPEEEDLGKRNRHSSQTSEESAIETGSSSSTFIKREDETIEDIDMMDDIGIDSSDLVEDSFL
Method: as §1

PEK = biological target: T6, PEK (Homo sapiens, UniProt Q9NZJ5)
T6 construct: gene EIF2AK3
Method: as §1

PLK1 = PLK1 (Homo sapiens, UniProt P53350)
Method: as §1

PLK2 = PLK2 (Homo sapiens, UniProt Q9NYY3)
Method: as §1

ROCK1 = ROCK1 (Homo sapiens, UniProt Q13464)
Sequence of ROCK1 (Q13464 whole entry): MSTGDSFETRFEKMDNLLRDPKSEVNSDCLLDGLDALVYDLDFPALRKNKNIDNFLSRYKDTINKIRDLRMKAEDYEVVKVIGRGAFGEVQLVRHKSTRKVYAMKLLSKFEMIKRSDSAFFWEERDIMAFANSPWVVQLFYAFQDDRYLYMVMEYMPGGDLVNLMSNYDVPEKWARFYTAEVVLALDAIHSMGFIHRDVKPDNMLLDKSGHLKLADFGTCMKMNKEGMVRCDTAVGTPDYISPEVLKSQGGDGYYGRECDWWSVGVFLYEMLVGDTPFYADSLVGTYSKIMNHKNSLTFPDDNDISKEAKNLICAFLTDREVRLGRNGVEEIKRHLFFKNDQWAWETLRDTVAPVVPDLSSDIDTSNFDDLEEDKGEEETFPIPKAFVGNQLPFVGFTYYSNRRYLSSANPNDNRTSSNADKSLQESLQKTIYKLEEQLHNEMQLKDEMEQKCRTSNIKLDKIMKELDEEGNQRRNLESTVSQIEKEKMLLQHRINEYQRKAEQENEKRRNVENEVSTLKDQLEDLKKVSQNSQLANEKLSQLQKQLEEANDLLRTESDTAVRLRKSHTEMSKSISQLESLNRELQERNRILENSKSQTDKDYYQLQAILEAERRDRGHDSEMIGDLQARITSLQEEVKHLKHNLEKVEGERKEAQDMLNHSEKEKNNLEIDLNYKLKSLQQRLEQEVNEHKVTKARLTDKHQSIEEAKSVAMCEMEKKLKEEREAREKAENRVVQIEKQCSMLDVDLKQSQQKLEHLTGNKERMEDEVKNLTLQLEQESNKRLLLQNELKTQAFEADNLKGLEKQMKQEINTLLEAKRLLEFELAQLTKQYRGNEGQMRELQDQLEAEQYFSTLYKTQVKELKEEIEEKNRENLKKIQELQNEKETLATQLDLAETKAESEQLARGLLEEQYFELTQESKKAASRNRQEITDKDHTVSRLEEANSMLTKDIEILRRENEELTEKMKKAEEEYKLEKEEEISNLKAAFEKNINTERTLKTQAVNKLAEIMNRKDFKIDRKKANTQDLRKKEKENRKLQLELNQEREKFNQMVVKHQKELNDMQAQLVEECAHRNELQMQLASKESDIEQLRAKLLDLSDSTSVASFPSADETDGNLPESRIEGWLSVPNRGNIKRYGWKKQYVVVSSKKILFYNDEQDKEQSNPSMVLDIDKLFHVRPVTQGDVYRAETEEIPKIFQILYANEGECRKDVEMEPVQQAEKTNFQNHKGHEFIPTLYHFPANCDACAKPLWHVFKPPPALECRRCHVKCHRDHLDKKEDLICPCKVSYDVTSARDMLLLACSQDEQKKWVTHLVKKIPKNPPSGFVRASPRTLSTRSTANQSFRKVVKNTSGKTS
Method: as §1

inhibition at 1 µM (CDK2/CycE1; replicate Data1): 3.25% | inhibition at 1 µM (CDK2/CycE1; replicate Data2): -0.65% | inhibition at 1 µM (CK1γ3; replicate Data1): 14.1% | inhibition at 1 µM (CK1γ3; replicate Data2): 20.6% | inhibition at 1 µM (CK2α1/β; replicate Data1): -12.2% | inhibition at 1 µM (CK2α1/β; replicate Data2): 5.04% | inhibition at 1 µM (Erk2; replicate Data1): 17.9% | inhibition at 1 µM (Erk2; replicate Data2): 10.3% | inhibition at 1 µM (GAK; replicate Data1): 18.2% | inhibition at 1 µM (GAK; replicate Data2): 19.7% | inhibition at 1 µM (HGK; replicate Data1): 4.09% | inhibition at 1 µM (HGK; replicate Data2): 11.5% | inhibition at 1 µM (JAK3; replicate Data1): -1.37% | inhibition at 1 µM (JAK3; replicate Data2): 7.33% | inhibition at 1 µM (LCK; replicate Data1): -16.9% | inhibition at 1 µM (LCK; replicate Data2): -10.8% | inhibition at 1 µM (MARK4; replicate Data1): 14.3% | inhibition at 1 µM (MARK4; replicate Data2): 0.49% | inhibition at 1 µM (PDGFRα; replicate Data1): -2.74% | inhibition at 1 µM (PDGFRα; replicate Data2): 4.62% | inhibition at 1 µM (PEK; replicate Data1): 1.73% | inhibition at 1 µM (PEK; replicate Data2): 19.4% | inhibition at 1 µM (PLK1; replicate Data1): -5.06% | inhibition at 1 µM (PLK1; replicate Data2): -18% | inhibition at 1 µM (PLK2; replicate Data1): -2.91% | inhibition at 1 µM (PLK2; replicate Data2): -19.7% | inhibition at 1 µM (ROCK1; replicate Data1): 2.59% | inhibition at 1 µM (ROCK1; replicate Data2): 4.57%
Compound: Nc1cn2cc(-c3cnc4c(c3)N(C(=O)OC3CCCCC3)CCO4)ccc2n1 [Zharp1-163]
